Test results from patent US8802849B2, “Tricyclic benzo[4,5]thieno-[2,3-d]pyrimidine-4-yl-amin derivatives, their salts, process for producing the compounds and their pharmaceutical use” (Vichem Chemie Kutató Kft., priority 2008, dated 2014).

Assays:
ROCK2 = ROCK2 (Homo sapiens, UniProt O75116); assay: ROCK2 kinase assay; format: biochemical; conditions: 10 μM compound; read-out: ROCK2 percent of inhibition
Method: (§1) General description of the kinase assays: the kinase activity was assayed in 96-well microtiter plates at a final compound concentration of 10 μM in a total volume of 50 μl. Compounds were dissolved in 100% DMSO to prepare a 10 mM stock solution and than diluted with buffer to reach a 10 μM (or the required) final concentration. The kinase concentration was used to yield 10% ATP turn over. The ATP concentration was used at the KmATP and 12.5 μCi/ml adenosine 5′[γ-33P]triphosphate. The substrate concentration was used at 5 fold excess over the Km for the substrate. The reaction was incubated for 1 hour at room temperature and stopped by addition of 10 μl 50 mM EDTA. The assay was transferred to a 96 well MAPH filter plate (Millipore). The radioactivity was counted on a Microbeta microplate counter.

Kit = Kit (Homo sapiens, UniProt P10721); assay: Kit kinase assay; format: biochemical; conditions: 10 μM compound; read-out: Kit percent of inhibition
Method: as §1

Jnk1a1 = Jnk1a1 (Homo sapiens, UniProt P45983); assay: Jnk1a1 kinase assay; format: biochemical; conditions: 10 μM compound; read-out: Jnk1a1 percent of inhibition
Method: as §1

P56Lck = P56Lck (Homo sapiens, UniProt P06239); assay: P56Lck kinase assay; format: biochemical; conditions: 10 μM compound; read-out: P56Lck percent of inhibition
Sequence of P56Lck (P06239 whole entry, species assumed): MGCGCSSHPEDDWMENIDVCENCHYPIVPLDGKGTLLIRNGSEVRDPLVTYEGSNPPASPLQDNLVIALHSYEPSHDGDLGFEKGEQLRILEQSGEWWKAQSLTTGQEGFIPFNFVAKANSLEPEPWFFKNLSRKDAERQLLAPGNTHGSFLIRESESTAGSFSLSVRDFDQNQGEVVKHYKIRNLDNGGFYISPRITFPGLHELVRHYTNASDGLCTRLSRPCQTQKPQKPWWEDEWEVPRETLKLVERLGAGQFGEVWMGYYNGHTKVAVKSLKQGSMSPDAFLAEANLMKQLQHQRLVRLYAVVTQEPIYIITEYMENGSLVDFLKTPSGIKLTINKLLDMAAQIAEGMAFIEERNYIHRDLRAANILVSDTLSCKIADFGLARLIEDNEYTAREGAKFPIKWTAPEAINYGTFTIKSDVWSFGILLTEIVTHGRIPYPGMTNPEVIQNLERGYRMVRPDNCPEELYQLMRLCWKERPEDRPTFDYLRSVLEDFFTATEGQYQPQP
Method: as §1

RSK1 = RSK1 (Homo sapiens, UniProt Q15418); assay: RSK1 kinase assay; format: biochemical; conditions: 10 μM compound; read-out: RSK1 percent of inhibition
Method: as §1

c-Src = c-Src (Homo sapiens, UniProt P12931); assay: c-Src kinase assay; format: biochemical; conditions: 10 μM compound; read-out: c-Src percent of inhibition
Method: as §1

P70S6K = P70S6K (Homo sapiens, UniProt P23443); assay: P70S6K kinase assay; format: biochemical; conditions: 10 μM compound; read-out: P70S6K percent of inhibition
Sequence of P70S6K (P23443 whole entry): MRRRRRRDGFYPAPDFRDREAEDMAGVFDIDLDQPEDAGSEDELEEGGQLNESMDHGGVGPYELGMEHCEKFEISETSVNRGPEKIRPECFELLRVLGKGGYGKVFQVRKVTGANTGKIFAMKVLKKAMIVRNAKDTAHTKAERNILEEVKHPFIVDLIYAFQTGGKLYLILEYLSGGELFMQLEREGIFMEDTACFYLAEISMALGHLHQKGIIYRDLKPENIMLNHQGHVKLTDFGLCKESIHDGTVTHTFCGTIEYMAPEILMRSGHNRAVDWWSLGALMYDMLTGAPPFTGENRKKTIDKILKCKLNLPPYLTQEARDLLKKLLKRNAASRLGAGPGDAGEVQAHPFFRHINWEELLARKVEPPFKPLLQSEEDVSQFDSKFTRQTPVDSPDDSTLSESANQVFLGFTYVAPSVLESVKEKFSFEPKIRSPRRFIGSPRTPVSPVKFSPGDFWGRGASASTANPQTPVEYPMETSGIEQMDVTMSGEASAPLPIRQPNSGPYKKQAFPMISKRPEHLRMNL
Method: as §1

SRPK1 = SRPK1 (Homo sapiens, UniProt Q96SB4); assay: SRPK1 kinase assay; format: biochemical; conditions: 10 μM compound; read-out: SRPK1 percent of inhibition
Method: as §1

PDGFR-beta = PDGFR-beta (Homo sapiens, UniProt P09619); assay: PDGFR-beta kinase assay; format: biochemical; conditions: 10 μM compound; read-out: PDGFR-beta percent of inhibition
Sequence of PDGFR-beta (P09619 33-1106, species assumed): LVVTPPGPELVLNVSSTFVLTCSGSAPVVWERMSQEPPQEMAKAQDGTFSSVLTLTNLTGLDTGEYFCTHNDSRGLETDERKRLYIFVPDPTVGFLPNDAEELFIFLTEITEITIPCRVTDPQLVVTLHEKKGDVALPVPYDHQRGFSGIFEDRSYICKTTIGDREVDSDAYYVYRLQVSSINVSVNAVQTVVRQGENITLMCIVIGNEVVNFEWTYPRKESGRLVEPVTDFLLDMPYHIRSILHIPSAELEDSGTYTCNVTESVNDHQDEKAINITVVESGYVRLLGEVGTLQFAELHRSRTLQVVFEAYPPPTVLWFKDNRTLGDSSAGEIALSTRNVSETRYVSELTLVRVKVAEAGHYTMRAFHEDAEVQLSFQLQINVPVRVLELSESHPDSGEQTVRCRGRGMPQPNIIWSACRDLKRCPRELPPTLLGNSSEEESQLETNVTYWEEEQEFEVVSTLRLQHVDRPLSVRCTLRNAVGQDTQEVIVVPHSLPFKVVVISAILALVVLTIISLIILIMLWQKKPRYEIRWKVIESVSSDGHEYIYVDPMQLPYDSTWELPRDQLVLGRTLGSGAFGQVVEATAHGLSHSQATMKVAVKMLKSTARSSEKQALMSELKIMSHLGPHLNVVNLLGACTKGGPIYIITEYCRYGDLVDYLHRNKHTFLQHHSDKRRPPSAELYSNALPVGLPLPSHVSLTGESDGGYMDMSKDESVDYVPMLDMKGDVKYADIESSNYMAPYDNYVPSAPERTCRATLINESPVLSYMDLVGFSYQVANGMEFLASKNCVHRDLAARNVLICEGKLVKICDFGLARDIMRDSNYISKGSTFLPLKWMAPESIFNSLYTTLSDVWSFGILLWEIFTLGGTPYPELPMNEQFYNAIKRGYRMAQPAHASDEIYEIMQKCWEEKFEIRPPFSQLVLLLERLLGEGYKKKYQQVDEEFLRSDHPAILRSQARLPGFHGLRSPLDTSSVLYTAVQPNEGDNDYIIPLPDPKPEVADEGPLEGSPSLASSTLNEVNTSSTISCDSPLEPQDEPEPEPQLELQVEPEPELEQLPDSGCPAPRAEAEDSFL
Method: as §1

AKT1/PKBa = AKT1/PKBa (Homo sapiens, UniProt P31749); assay: AKT1/PKBa kinase assay; format: biochemical; conditions: 10 μM compound; read-out: AKT1/PKBa percent of inhibition
Sequence of AKT1/PKBa (P31749 whole entry): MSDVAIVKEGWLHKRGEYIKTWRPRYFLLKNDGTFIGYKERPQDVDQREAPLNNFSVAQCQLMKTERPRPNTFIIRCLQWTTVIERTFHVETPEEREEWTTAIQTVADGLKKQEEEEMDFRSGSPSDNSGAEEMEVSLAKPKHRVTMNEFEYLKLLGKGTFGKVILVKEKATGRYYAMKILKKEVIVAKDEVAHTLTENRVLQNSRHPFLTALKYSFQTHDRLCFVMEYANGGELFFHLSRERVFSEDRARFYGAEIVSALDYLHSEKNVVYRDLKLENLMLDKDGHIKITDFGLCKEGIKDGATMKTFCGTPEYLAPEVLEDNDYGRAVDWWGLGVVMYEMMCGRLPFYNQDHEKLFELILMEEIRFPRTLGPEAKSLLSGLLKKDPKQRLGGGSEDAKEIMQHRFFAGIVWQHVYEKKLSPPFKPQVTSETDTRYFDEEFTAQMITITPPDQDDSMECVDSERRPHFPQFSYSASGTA
Method: as §1

InsR = InsR (Homo sapiens, UniProt P06213); assay: InsR kinase assay; format: biochemical; conditions: 10 μM compound; read-out: InsR percent of inhibition
Method: as §1

c-Raf = c-Raf (Homo sapiens, UniProt P04049); assay: c-Raf kinase assay; format: biochemical; conditions: 10 μM compound; read-out: c-Raf percent of inhibition
Method: as §1

Abl = Abl (Homo sapiens, UniProt P00519); assay: Abl kinase assay; format: biochemical; conditions: 10 μM compound; read-out: Abl percent of inhibition
Method: as §1

IKK-beta = target: T1, IKK-beta (Homo sapiens, UniProt O14920); assay: IKK-beta kinase assay; format: biochemical; conditions: 10 μM compound; read-out: IKK-beta percent of inhibition
T1 sequence (O14920 1-756): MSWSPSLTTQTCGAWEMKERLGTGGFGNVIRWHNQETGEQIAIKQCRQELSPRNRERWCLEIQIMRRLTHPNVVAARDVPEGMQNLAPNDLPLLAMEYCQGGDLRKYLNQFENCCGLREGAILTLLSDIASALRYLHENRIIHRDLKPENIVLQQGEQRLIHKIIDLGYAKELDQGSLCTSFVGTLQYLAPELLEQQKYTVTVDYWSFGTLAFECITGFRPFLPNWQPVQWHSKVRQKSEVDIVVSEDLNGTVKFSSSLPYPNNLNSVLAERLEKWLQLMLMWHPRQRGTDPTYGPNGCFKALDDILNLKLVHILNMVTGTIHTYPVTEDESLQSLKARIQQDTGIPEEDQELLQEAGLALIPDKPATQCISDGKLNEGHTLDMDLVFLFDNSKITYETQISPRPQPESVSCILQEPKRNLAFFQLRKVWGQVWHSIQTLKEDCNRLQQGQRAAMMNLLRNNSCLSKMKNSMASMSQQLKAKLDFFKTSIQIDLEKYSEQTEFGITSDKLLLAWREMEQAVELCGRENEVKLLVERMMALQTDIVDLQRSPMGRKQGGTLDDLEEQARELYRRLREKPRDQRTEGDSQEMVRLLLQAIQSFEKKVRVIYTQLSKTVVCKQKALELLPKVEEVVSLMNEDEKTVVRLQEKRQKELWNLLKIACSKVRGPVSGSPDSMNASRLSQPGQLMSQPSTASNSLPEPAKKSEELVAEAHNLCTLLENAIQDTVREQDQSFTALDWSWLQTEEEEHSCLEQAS
Method: as §1

MAPK-ERK1 = MAPK-ERK1 (Homo sapiens, UniProt P27361); assay: MAPK-ERK1 kinase assay; format: biochemical; conditions: 10 μM compound; read-out: MAPK-ERK1 percent of inhibition
Sequence of MAPK-ERK1 (P27361 whole entry): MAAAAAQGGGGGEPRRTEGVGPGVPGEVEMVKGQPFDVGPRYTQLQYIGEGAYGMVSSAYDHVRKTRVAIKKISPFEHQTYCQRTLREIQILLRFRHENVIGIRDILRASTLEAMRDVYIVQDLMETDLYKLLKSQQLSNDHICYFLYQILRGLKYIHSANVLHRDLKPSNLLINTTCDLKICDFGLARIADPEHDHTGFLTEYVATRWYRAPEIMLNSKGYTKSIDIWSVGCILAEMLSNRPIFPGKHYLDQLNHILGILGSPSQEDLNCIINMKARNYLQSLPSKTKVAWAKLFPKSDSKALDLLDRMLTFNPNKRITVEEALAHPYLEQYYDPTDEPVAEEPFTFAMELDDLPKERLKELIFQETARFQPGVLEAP
Method: as §1

CDK2/CycA = CDK2/CycA (Homo sapiens, UniProt P24941); assay: CDK2/CycA kinase assay; format: biochemical; conditions: 10 μM compound; read-out: CDK2/CycA percent of inhibition
Method: as §1

CK1-alpha = CK1-alpha (Homo sapiens, UniProt P48729); assay: CK1-alpha kinase assay; format: biochemical; conditions: 10 μM compound; read-out: CK1-alpha percent of inhibition
Method: as §1

cMet = cMet (Homo sapiens, UniProt P08581); assay: cMet kinase assay; format: biochemical; conditions: 10 μM compound; read-out: cMet percent of inhibition
Sequence of cMet (P08581 25-1390): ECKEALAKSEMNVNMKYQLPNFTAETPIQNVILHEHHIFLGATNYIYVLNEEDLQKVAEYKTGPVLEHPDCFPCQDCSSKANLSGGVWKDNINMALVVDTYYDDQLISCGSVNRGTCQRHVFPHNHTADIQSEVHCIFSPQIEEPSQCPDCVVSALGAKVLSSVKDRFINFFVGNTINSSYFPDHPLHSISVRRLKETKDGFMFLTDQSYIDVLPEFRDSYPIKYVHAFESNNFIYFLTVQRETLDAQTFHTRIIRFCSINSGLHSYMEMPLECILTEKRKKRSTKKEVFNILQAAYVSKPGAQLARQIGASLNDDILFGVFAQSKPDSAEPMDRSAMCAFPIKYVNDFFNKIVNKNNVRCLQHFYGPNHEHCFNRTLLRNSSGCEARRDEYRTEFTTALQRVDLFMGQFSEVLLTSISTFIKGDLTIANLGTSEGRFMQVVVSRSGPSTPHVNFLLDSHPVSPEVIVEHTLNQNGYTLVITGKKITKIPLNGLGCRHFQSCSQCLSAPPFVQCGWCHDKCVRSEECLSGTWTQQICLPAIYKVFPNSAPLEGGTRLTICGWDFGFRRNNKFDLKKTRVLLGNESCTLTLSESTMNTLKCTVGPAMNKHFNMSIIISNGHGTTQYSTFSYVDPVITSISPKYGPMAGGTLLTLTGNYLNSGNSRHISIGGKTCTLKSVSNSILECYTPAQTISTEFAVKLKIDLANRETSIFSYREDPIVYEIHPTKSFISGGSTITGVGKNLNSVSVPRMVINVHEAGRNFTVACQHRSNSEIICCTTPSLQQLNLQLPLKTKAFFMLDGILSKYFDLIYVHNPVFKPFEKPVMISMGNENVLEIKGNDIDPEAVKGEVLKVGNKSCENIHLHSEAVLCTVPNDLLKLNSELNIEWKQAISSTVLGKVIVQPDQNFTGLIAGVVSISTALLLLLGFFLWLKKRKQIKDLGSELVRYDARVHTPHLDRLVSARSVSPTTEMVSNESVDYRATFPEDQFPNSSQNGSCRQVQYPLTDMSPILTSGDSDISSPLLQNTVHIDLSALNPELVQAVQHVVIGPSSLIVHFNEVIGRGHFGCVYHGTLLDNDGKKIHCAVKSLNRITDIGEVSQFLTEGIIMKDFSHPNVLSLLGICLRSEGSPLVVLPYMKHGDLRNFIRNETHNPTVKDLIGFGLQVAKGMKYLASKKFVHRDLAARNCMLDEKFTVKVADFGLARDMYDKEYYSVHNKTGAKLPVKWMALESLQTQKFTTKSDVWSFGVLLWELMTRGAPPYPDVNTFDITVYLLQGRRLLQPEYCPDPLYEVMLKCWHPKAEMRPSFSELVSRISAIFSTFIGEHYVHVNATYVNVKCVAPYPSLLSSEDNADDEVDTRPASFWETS
Method: as §1

GSK-3beta = GSK-3beta (Homo sapiens, UniProt P49841); assay: GSK-3beta kinase assay; format: biochemical; conditions: 10 μM compound; read-out: GSK-3beta percent of inhibition
Sequence of GSK-3beta (P49841 whole entry, species assumed): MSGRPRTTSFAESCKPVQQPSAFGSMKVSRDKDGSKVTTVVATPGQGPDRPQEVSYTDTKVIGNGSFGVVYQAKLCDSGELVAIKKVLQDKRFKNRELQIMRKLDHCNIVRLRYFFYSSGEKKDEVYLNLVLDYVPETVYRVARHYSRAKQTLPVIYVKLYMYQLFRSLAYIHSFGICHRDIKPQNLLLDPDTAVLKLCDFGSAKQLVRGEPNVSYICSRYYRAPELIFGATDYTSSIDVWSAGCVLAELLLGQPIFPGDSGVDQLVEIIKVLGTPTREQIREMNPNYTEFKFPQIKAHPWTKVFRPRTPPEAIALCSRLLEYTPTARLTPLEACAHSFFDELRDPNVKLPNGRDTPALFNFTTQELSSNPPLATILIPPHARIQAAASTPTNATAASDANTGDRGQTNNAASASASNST
Method: as §1

EGFR = EGFR (Homo sapiens, UniProt P00533); assay: EGFR kinase assay (33P-ATP filter plate); format: biochemical; conditions: 10 μM compound; read-out: EGFR percent of inhibition
Method: as §1

Compound	inhibition at 10 µM (ROCK2)	inhibition at 10 µM (Kit)	inhibition at 10 µM (Jnk1a1)	inhibition at 10 µM (P56Lck)	inhibition at 10 µM (RSK1)	inhibition at 10 µM (c-Src)	inhibition at 10 µM (P70S6K)	inhibition at 10 µM (SRPK1)	inhibition at 10 µM (PDGFR-beta)	inhibition at 10 µM (AKT1/PKBa)	inhibition at 10 µM (InsR)	melting point	inhibition at 10 µM (c-Raf)	inhibition at 10 µM (Abl)	inhibition at 10 µM (IKK-beta)	inhibition at 10 µM (MAPK-ERK1)	inhibition at 10 µM (CDK2/CycA)	inhibition at 10 µM (CK1-alpha)	inhibition at 10 µM (cMet)	inhibition at 10 µM (GSK-3beta)	other results
FC(F)(F)c1cccc(Nc2nc(C3CC3)nc3sc4c(c23)CCCC4)c1 [Compound 11, (2-Cyclopropyl-5,6,7,8-tetrahydro-benzo[4,5]thieno[2,3-d]pyrimidin-4-yl)-(3-trifluoromethyl-phenyl)-amine]	6%	-1%	-3%	-7%	-14%	8%	20%	-5%	-4%	1%	-6%	204.8 °C	2%	0%	4%	4%	-5%	-1%	3%	-3%	inhibition at 10 µM (EGFR): 4%
O=[N+]([O-])c1cccc(Nc2nc(C3CC3)nc3sc4c(c23)CCCC4)c1 [Compound 13, (2-Cyclopropyl-5,6,7,8-tetrahydro-benzo[4,5]thieno[2,3-d]pyrimidin-4-yl)-(3-nitro-phenyl)-amine]	3%	-12%	-9%	12%	-18%	1%	9%	11%	-14%	-2%	9%	211.7 °C	-7%	-15%	-9%	-6%	-18%	0%	-4%	-6%	inhibition at 10 µM (EGFR): 26%
N#Cc1cccc(Nc2nc(C3CC3)nc3sc4c(c23)CCCC4)c1 [Compound 14, 3-(2-Cyclopropyl-5,6,7,8-tetrahydro-benzo[4,5]thieno[2,3-d]pyrimidin-4-ylamino)-benzonitrile]	12%	-12%	-4%	6%	-4%	5%	2%	11%	-4%	-1%	-3%	176.3 °C	-5%	-3%	-6%	-4%	-3%	0%	-7%	2%	inhibition at 10 µM (EGFR): 72%

The next lines start with results.

inhibition at 10 µM (ROCK2)	inhibition at 10 µM (Kit)	inhibition at 10 µM (Jnk1a1)	inhibition at 10 µM (P56Lck)	inhibition at 10 µM (RSK1)	inhibition at 10 µM (c-Src)	inhibition at 10 µM (P70S6K)	inhibition at 10 µM (SRPK1)	inhibition at 10 µM (PDGFR-beta)	inhibition at 10 µM (AKT1/PKBa)	inhibition at 10 µM (InsR)	melting point	inhibition at 10 µM (c-Raf)	inhibition at 10 µM (Abl)	inhibition at 10 µM (IKK-beta)	inhibition at 10 µM (MAPK-ERK1)	inhibition at 10 µM (CDK2/CycA)	inhibition at 10 µM (CK1-alpha)	inhibition at 10 µM (cMet)	inhibition at 10 µM (GSK-3beta)	Compound	other results
3%	13%	-4%	10%	-18%	13%	-23%	11%	4%	-5%	-7%	160.7 °C	23%	10%	23%	-8%	3%	6%	1%	7%	Fc1ccccc1Nc1ncnc2sc3c(c12)CCCC3 [Compound 1, (2-Fluoro-phenyl)-(5,6,7,8-tetrahydro-benzo[4,5]thieno[2,3-d]pyrimidin-4-yl)-amine]	inhibition at 10 µM (EGFR): 97%
5%	-8%	-5%	9%	0%	4%	9%	21%	-11%	-13%	22%	185.9 °C	-3%	-13%	9%	0%	-8%	-3%	-6%	0%	Nc1cccc(Nc2nc(C3CC3)nc3sc4c(c23)CCCC4)c1 [Compound 12, N-(2-Cyclopropyl-5,6,7,8-tetrahydro-benzo[4,5]thieno[2,3-d]pyrimidin-4-yl)-benzene-1,3-diamine]	inhibition at 10 µM (EGFR): 5%
5%	-6%	-6%	0%	2%	3%	0%	7%	-2%	-10%	3%	208.6 °C	-6%	-20%	-2%	2%	-10%	-3%	-14%	-6%	Clc1cccc(Nc2nc(C3CC3)nc3sc4c(c23)CCCC4)c1 [Compound 9, (3-Chloro-phenyl)-(2-cyclopropyl-5,6,7,8-tetrahydro-benzo[4,5]thieno[2,3-d]pyrimidin-4-yl)-amine]	inhibition at 10 µM (EGFR): 66%
